Results on two molecules are retold here after patent US20100105657A1, “Compounds, Process for their Preparation, Intermediates, Pharmaceutical Compositions and their use in the Treatment of 5-HT6 Mediated Disorders such as Alzheimer's Disease, Cognitive Disorders, Cognitive Impairment Associated with Schizophrenia, Obesity and Parkinson's Disease” (AstraZeneca AB, priority 2005, published 2010).

This experiment deals with T1, Rat Striatal 5-HT6 Receptors (Rattus norvegicus, UniProt P31388).
T1 construct: Striatal tissue from adult rats (Sprague-Dawley, 320-370 g, B & K Sweden) were dissected out, weighed and homogenized; from tissue; host or cells: rat striatum (Sprague-Dawley) membranes
T1 sequence (P31388 whole entry): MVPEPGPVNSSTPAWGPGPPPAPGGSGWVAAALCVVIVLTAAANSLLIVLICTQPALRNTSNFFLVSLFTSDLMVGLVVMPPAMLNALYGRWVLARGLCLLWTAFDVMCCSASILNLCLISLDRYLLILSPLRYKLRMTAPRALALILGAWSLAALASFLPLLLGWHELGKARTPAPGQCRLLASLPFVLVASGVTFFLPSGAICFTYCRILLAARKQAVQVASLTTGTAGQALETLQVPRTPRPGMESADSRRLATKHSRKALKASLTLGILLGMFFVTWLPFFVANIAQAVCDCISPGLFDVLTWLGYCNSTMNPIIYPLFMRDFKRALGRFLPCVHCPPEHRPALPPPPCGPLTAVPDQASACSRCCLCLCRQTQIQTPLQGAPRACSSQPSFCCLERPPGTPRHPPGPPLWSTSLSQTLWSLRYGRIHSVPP
The experiment in a line: [125I]SB258585 binding to rat striatal 5-HT6 receptors. As to conditions: competition with [125I]SB258585, rat striatal membranes. On the procedure: Method for [125I]SB258585 Binding to Rat Striatal 5-HT6 Receptors
[^125I]SB258585 (1) with specific radioactivity 2000 Ci/mmol was purchased from Amersham Biosciences Europe GmbH, Freiburg, Germany. Other chemicals were purchased from commercial sources and were of analytical grade.
Striatal tissue from adult rats (Sprague-Dawley, 320-370 g, B & K Sweden) were dissected out, weighed and homogenized in buffer containing 50 mM Tris-HCl, 4 mM MgCl2, 1 mM EDTA, 10 μM pargyline and protease inhibitor (Complete, Roche Diagnostics) pH 7.4 using an Ultra-Turrax T8 (IKA Labortechnik, Germany). The tissue homogenate was centrifuged at 48 000×g for 10 min and the pellet was resuspended and recentrifuged as above. […]
Saturation binding studies were carried out in duplicate with 1-3 mg w.w. per tube in 0.5 ml buffer (50 mM Tris, 4 mM MgCl2, 100 mM NaCl, 1 mM EDTA, 5 mM ascorbate and 10 μM pargyline at pH 7.4), 0.2 nM [^125I]SB258585 and unlabelled SB258585 to give a final concentration range of 0.23-20 nM (12 conc.). Non-specific binding was determined in the presence of 10 μM methiothepin. […] The radioactivity was determined in a Packard Tri-Carb 2900TR liquid scintillation counter. Data were analyzed by non-linear regression analyses using PRISM 4.00 (GraphPad Software Inc., San Diego, Calif.). […]

As for `CN1CCOc2ccc(NS(=O)(=O)c3cccc(Cl)c3Cl)cc2C1` [Example 6, 2,3-dichloro-N-(4-methyl-2,3,4,5-tetrahydro-1,4-benzoxazepin-7-yl)benzenesulfonamide], the Ki (commonly the equilibrium dissociation constant of an inhibitor or competing ligand from its target) worked out at 0.031 ± 0.009 µM.

The molecule `O=S(=O)(Nc1ccc2c(c1)CNCCC2)c1csc(C(F)(F)F)c1-c1ccccc1` [Example 39, 4-phenyl-N-(2,3,4,5-tetrahydro-1H-2-benzazepin-8-yl)-5-(trifluoromethyl)thiophene-3-sulfonamide] registered a Ki of 0.032 ± 0.014 µM.
